target: rat EP1 receptor (Rattus norvegicus (Rat), UniProt P70597); experiment: Test for confirmation of EP1 receptor antagonism: inhibition of the prostaglandin E2-induced increase in intracellular calcium concentration in rat EP1 receptor-expressing COS-1 cells; assay type: cell-based; conditions: Method A: Fluo-4 NW Calcium Assay Kit, FlexStation; prostaglandin E2 10 nM; rat EP1 receptor-expressing COS-1 cells
Protocol: (1) Preparation of Rat EP1 Expression Vector
Using Rat Kidney BD Marathon-Ready cDNA (Nippon Becton Dickinson Company, Ltd.) as a template, a forward primer shown in SEQ ID NO. 1, and a reverse primer shown in SEQ ID NO. 2, a first run of PCR was carried out using KOD-Plus-Ver 2.0 (Toyobo Co., Ltd.). Further, using this amplification product as a template, a forward primer shown in SEQ ID NO. 3, and a reverse primer shown in SEQ ID NO. 4, a second run of PCR was carried out in the same manner. The amplification product obtained by the second run of PCR was incorporated into a vector (pcDNA3.1 D/V5-His-TOPO (registered trademark), Invitrogen Japan K. K.). By a conventional method, the vector containing this amplification product was introduced to E. coli (One Shot TOP10 Competent Cells, Invitrogen Corporation) to transform. This transformed E. coli was cultured in an LB agar medium for one day. After the culture, colonies were selected and cultured in an LB liquid medium containing 50 μg/mL of ampicillin. After the culture, the vector was purified using a QIAprep Spin Miniprep Kit (Qiagen K. K.). The base sequence of the insertion site of this vector (SEQ ID NO. 5) was compared with the rat EP1 base sequence (Ptger1) registered as an accession number NM_013100 in well-known database (NCBI), and as a result, they all matched except for a single base. Further, the amino acid sequence translated by the base sequence completely matched the amino acid sequence of the rat EP1 receptor registered as an NCBI accession number NP_037232. Therefore, it was confirmed that the cloned gene sequence was a base sequence of the rat EP1 receptor and the obtained amino acid sequence was that of the rat EP1 receptor. The pcDNA3.1 D/V5-His-TOPO (registered trademark) to which the nucleic acid shown in SEQ ID NO. 5 had been inserted was taken as a rat EP1-expressing vector.
(2) Preparation of Rat EP1 Receptor-Expressing Cells
COS-1 cells (Dainippon Sumitomo Pharma Co., Ltd.) were cultured until it reached confluence in an incubator at 37° C. under a 5% CO2 gas condition, using a D-MEM liquid medium (high glucose and L-glutamine contained, Invitrogen Corporation) to which a penicillin-streptomycin solution (Invitrogen Corporation, final concentration: 100 U/mL as benzylpenicillin; 100 μg/mL as streptomycin) as an antibiotic, MEM nonessential amino acids (Invitrogen Corporation, final Concentration: 0.1 mM), and fetal calf serum (Sanko Junyaku Co., Ltd., final concentration: 10%) were added.
The cells that had reached confluence were stripped with 0.05% trypsin/0.53 mM EDTA 4Na (Invitrogen Japan K. K.) and resuspended in the liquid medium. The resuspended cells were diluted and cultured in the liquid medium at a spread ratio from 1:4 to 1:8.
The cells that had reached confluence were stripped with 0.05% trypsin/0.53 mM EDTA.4Na, and resuspended in a D-MEM liquid medium (high glucose and L-glutamine contained, Invitrogen Corporation) to which an MEM nonessential amino acid (final concentration: 0.1 mM) and fetal calf serum (final concentration: 10%) were added. In each well of a Poly D-lysine-coated 96-well microplate (BD BioCoat (registered trademark), Nippon Becton Dickinson Company, Ltd.), this resuspended cell suspension culture was prepared to be 5×10^4 cells/well in 100 μL of the liquid medium, and seeded thereon. After seeding, the cells were cultured in an incubator at 37° C. under a 5% CO2 gas condition. At a point when the cells for introduction of a rat EP1-expressing vector were adhered (about 2 hours after seeding), introduction of the rat EP1-expressing vector was carried out in the following order.
For introduction of the rat EP1-expressing vector, Lipofectamine 2000 (Invitrogen Japan K. K.) was used. […]

rat EP1 receptor, sequence (P70597 whole entry): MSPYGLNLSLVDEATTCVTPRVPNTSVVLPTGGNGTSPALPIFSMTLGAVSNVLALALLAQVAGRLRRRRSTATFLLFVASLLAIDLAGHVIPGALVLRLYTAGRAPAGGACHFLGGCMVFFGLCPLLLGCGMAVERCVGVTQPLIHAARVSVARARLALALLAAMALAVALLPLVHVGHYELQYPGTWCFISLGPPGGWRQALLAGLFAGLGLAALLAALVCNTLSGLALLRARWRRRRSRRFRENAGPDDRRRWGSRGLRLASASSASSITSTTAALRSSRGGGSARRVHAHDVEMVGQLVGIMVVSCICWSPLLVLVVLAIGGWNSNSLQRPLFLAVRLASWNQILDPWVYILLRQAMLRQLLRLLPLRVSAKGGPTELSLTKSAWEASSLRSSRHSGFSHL

Q: How did the IC50 turn out when “3-(5-methyl-2-phenylindol-1-yl)carboxylic acid [Comparative Example 1, reference compound]” was run?
A: > 10000 nM

Q: Which IC50 does the source give for `COc1ccc2c(c1)cc(-c1ccccc1)n2Cc1cccc(C(=O)O)c1` [Example 9-1, 3-(5-methoxy-2-phenylindol-1-ylmethyl)benzoic acid] here?
A: 21 nM

Q: For `Cc1ccc2c(c1)cc(-c1ccccc1)n2Cc1cccc(C(=O)O)c1` [Example 9-13, 3-(5-methyl-2-phenylindol-1-ylmethyl)benzoic acid], which IC50 is on record?
A: 89 nM

Q: With `COc1ccc2c(c1)cc(C(C)C)n2Cc1cccc(C(=O)O)c1` [Example 9-15, 3-(2-isopropyl-5-methoxyindol-1-ylmethyl)benzoic acid] as the molecule, how does the IC50 read?
A: 22 nM

Q: Which IC50 does the source give for `COc1ccc2c(c1)cc(-c1ccsc1)n2Cc1cccc(C(=O)O)c1` [Example 9-25, 3-(5-methoxy-2-thiophen-3-ylindol-1-ylmethyl)benzoic acid] here?
A: 35 nM

Q: For `COc1ccc2c(c1)cc(-c1ccoc1)n2Cc1cccc(C(=O)O)c1` [Example 9-32, 3-(2-furan-3-yl-5-methoxyindol-1-ylmethyl)benzoic acid], which IC50 is on record?
A: 11 nM

Q: How did the IC50 turn out when `COc1ccc2c(c1)cc(-c1ccsc1)n2Cc1cccc(C(=O)O)n1` [Example 9-35, 6-(5-methoxy-2-thiophen-3-ylindol-1-ylmethyl)pyridine-2-carboxylic acid] was run?
A: 23 nM

Q: With `COc1cc2cc(-c3ccccc3)n(Cc3cccc(C(=O)O)c3)c2cc1F` [Example 9-43, 3-(6-fluoro-5-methoxy-2-phenylindol-1-ylmethyl)benzoic acid] as the molecule, how does the IC50 read?
A: 13 nM

Q: How did the IC50 turn out when `COc1ccc2c(c1)cc(-c1ccccc1)n2Cc1cccc(C(=O)O)c1F` [Example 9-44, 2-fluoro-3-(5-methoxy-2-phenylindol-1-ylmethyl)benzoic acid] was run?
A: 19 nM

same assay, conditions: Method B: Calcium kit II Fluo 4, FDSS 7000; prostaglandin E2 10 nM; rat EP1 receptor-expressing COS-1 cells

Q: `COc1cc2cc(-c3ccccc3)n(Cc3cccc(C(=O)O)n3)c2cc1Cl` [Example 25-9, 6-(6-chloro-5-methoxy-2-phenylindol-1-ylmethyl)pyridine-2-carboxylic acid] was tested. Which IC50 did it give?
A: 67 nM

Q: Which IC50 does the source give for `COc1ccc2c(c1)cc(-c1cccc(F)c1)n2Cc1ccc(C(=O)O)o1` [Example 25-11, 5-[2-(3-fluorophenyl)-5-methoxyindol-1-ylmethyl]furan-2-carboxylic acid] here?
A: 34 nM

Q: Which IC50 does the source give for `COc1ccc2c(c1)cc(-c1ccccc1)n2Cc1csc(C(=O)O)n1` [Example 25-12] here?
A: 55 nM

Q: How did the IC50 turn out when `COc1ccc2c(c1)cc(-c1cccnc1)n2Cc1cccc(C(=O)O)c1` [Example 25-13, 3-(5-methoxy-2-pyridin-3-ylindol-1-ylmethyl)benzoic acid] was run?
A: 38 nM

Q: How did the IC50 turn out when `COc1cc2cc(-c3ccccc3)n(Cc3cccc(C(=O)O)n3)c2cc1C` [Example 25-16, 6-(5-methoxy-6-methyl-2-phenylindol-1-ylmethyl)pyridine-2-carboxylic acid] was run?
A: 39 nM

Q: For `COc1ccc2c(c1)cc(-c1ccccc1F)n2Cc1cccc(C(=O)O)c1` [Example 25-17, 3-[2-(2-fluorophenyl)-5-methoxyindol-1-ylmethyl]benzoic acid], which IC50 is on record?
A: 32 nM

Q: For `COc1ccc2c(c1)cc(-c1cccc(F)c1)n2Cc1cccc(C(=O)O)c1` [Example 25-18, 3-[2-(3-fluorophenyl)-5-methoxyindol-1-ylmethyl]benzoic acid], which IC50 is on record?
A: 17 nM

Q: For `COc1ccc2c(c1)cc(-c1ccc(F)cc1)n2Cc1cccc(C(=O)O)c1` [Example 25-19, 3-[2-(4-fluorophenyl)-5-methoxyindol-1-ylmethyl]benzoic acid], which IC50 is on record?
A: 36 nM

Q: For `COc1cc2cc(-c3cccc(F)c3)n(Cc3cccc(C(=O)O)n3)c2cc1Cl` [Example 25-23, 6-[6-chloro-2-(3-fluorophenyl)-5-methoxyindol-1-ylmethyl]pyridine-2-carboxylic acid], which IC50 is on record?
A: 32 nM

Q: For `COc1cc2cc(-c3ccccc3)n(Cc3ccc(C(=O)O)o3)c2cc1Cl` [Example 25-26, 5-[6 chloro-5-methoxy-2-phenylindol-1-ylmethyl]furan-2-carboxylic acid], which IC50 is on record?
A: 17 nM

Q: How did the IC50 turn out when `COc1cc2cc(-c3ccccc3F)n(Cc3cccc(C(=O)O)n3)c2cc1F` [Example 25-28, 6-[6-fluoro-2-(2-fluorophenyl)-5-methoxyindol-1-ylmethyl]pyridine-2-carboxylic acid] was run?
A: 28 nM

Q: How did the IC50 turn out when `COc1cc2cc(-c3cccc(F)c3)n(Cc3cccc(C(=O)O)n3)c2cc1F` [Example 25-29, 6-[6-fluoro-2-(3-fluorophenyl)-5-methoxyindol-1-ylmethyl]pyridine-2-carboxylic acid] was run?
A: 26 nM

Q: With `COc1cc2cc(-c3ccc(F)cc3)n(Cc3cccc(C(=O)O)n3)c2cc1F` [Example 25-31, 6-[6-fluoro-2-(4-fluorophenyl)-5-methoxyindol-1-ylmethyl]pyridine-2-carboxylic acid] as the molecule, how does the IC50 read?
A: 33 nM

Q: With `COc1cc2cc(-c3cccnc3)n(Cc3cccc(C(=O)O)n3)c2cc1F` [Example 25-33, 6-(6-fluoro-5-methoxy-2-pyridin-3-ylindol-1-ylmethyl)pyridine-2-carboxylic acid] as the molecule, how does the IC50 read?
A: 58 nM

Q: How did the IC50 turn out when `COc1cc2cc(-c3ccsc3)n(Cc3cccc(C(=O)O)n3)c2cc1Cl` [Example 25-34, 6-(6-chloro-5-methoxy-2-thiophen-3-ylindol-1-ylmethyl)pyridine-2-carboxylic acid] was run?
A: 54 nM

Q: `COc1cc2cc(-c3ccccc3)n(Cc3ccc(C(=O)O)o3)c2cc1C` [Example 25-36, 5-[5-methoxy-6-methyl-2-phenylindol-1-ylmethyl]furan-2-carboxylic acid] was tested. Which IC50 did it give?
A: 35 nM

Q: Which IC50 does the source give for `COc1cc2cc(-c3ccoc3)n(Cc3cccc(C(=O)O)n3)c2cc1Cl` [Example 25-37, 6-(6-chloro-2-furan-3-yl-5-methoxyindol-1-ylmethyl)pyridine-2-carboxylic acid] here?
A: 27 nM

Q: `COc1cc2cc(-c3ccoc3)n(Cc3ccc(C(=O)O)o3)c2cc1Cl` [Example 25-38, 5-(6-chloro-2-furan-3-yl-5-methoxyindol-1-ylmethyl)furan-2-carboxylic acid] was tested. Which IC50 did it give?
A: 22 nM

Q: With `COc1cc2cc(-c3ccsc3)n(Cc3cccc(C(=O)O)n3)c2cc1C` [Example 25-39, 6-(5-methoxy-6-methyl-2-thiophen-3-ylindol-1-ylmethyl)pyridine-2-carboxylic acid] as the molecule, how does the IC50 read?
A: 37 nM

Q: With `COc1ccc2c(c1)cc(-c1cc(F)ccc1F)n2Cc1cccc(C(=O)O)n1` [Example 25-41, 6-[2-(2,5-difluorophenyl)-5-methoxyindol-1-ylmethyl)pyridine-2-carboxylic acid] as the molecule, how does the IC50 read?
A: 25 nM

Q: With `COc1cc2cc(-c3cccnc3)n(Cc3cccc(C(=O)O)n3)c2cc1Cl` [Example 25-42, 6-(6-chloro-5-methoxy-2-pyridin-3-ylindol-1-ylmethyl)pyridine-2-carboxylic acid] as the molecule, how does the IC50 read?
A: 28 nM

Q: `CCC(C)c1cc2cc(OC)c(Cl)cc2n1Cc1cccc(C(=O)O)n1` (centres unmarked) [Example 25-44, 6-[6-chloro-5-methoxy-2-(1-methylpropyl)indol-1-ylmethyl]pyridine-2-carboxylic acid] was tested. Which IC50 did it give?
A: 51 nM

same assay, conditions: as shown in Table 49

Q: Which “EP1 receptor antagonism (in words)” value does the source give for “3-(5-methyl-2-phenylindol-1-yl)carboxylic acid [Comparative Example 1, reference compound]” here?
A: do not exhibit EP1 receptor antagonism
